Data taken from patent US7683185B2, “Histone deacetylase inhibitors” (Queen Mary & Westfield College, priority 2002, dated 2010).
Like-named read-outs stand apart in the source and are kept apart here.

Tests used:
rat liver HDAC = assay: HDAC activity assay with partially purified rat liver HDAC enzyme (MAL substrate); format: biochemical
Protocol: The activity of the compounds as inhibitors of histone deacetylase was investigated using a modified assay based on a rapid in vitro HDAC activity assay (based on the deacetylation of an Ω-acetylated lysine (MAL)) and described by Hoffman et al. in Nucl. Acids. […] The reaction was terminated with 100 μl acetonitrile, and MAL and the deacetylated produce (ML) were determined in the supernatant. […] MAL and ML peak heights were used to derive the percentage MAL in the mixture as the ration of MAL: MAL+ML.

[1] = tested on: T1, whole cell HDAC activity (CEM cells); assay: Whole cell HDAC activity assay in intact CEM cells (MAL substrate); format: cell-based
T1 construct: other: intact CEM cells
Protocol: The fluorescent substrate MAL has been used in a novel assay established and validated by Dr. Joel for the determination of HDAC activity in intact cells.
1×10^6 CEM cells in 1 ml medium were exposed to inhibitors at 6 concentrations for 60 minutes, after which MAL at 20 μg/ml (5 μg/mL final concentration) was added for a further 30 minutes, all at 37° C. Cells were then rapidly washed at 4° C., lysed by sonication, the reaction stopped with acetonitrile, and MAL and the deacetylated product determined in the supernatant by rapid HPLC.
Chromatographic separation of MAL and ML was carried out using a 15 cm Apex ODS 5 μM column with acetonitrile/distilled water (40:60), 2% trifluoracetic acid (TFA) v/v mobile phase at a flow rate of 1.2 ml/minute.
The activity of each inhibitor was assessed at a minimum of 5 non-zero concentrations. MAL and ML peak heights were used to derive the percentage MAL in the mixture as the ration of MAL: MAL+ML.

[2] = tested on: whole cell HDAC activity (CEM cells); assay: Whole cell HDAC assay modified for 24-hour incubation with CEM cells as indicator of in vitro compound stability
CEM cells = assay: Percentage viability in CEM cells (3-day exposure); format: cell-based
[3] = rat liver HDAC preparation, 60 minutes at 37° C., read-out: HDAC inhibitory activity (IC50) μM Liver preparation
[4] = intact CEM cells, inhibitor 60 minutes then MAL 30 minutes, read-out: HDAC inhibitory activity (IC50) μM CEM cells
[5] = CEM cells (Table 2), read-out: HDAC inhibitory activity CEM cells (IC50)
[6] = Homo sapiens, CCRF-CEM, 72 h, Table 2, CEM cells, 3-day exposure, read-out: % Viability (IC50)
[7] = rat liver HDAC, read-out: HDAC activity IC50, rat liver HDAC
[8] = intact CEM cells, read-out: HDAC activity IC50, CEM cells

Compound | IC50 (rat liver HDAC; [3]) [µM] | IC50 [1, 4] [µM] | decrease in HDAC inhibitory activity between 1 and 24 hours incubation [2] | IC50 [1, 5] [µM] | IC50 (rat liver HDAC; [7]) [µM] | IC50 [1, 8] [µM] | IC50 (CEM cells; [6]) [µM] | further results
O=C(/C=C/C=C/C[S+]([O-])c1ccc(Cl)cc1)NO (stereo not drawn) [UCL 2002, 6-(4-Chlorobenzenesulfinyl)-hexa-2,4-dienoic acid hydroxyamide] | 0.4 ± 0.1 | 1.2 ± 0.4 | no decrease in activity | 1.58 |  |  | 1.57 | IC50 (rat liver HDAC; purified liver HDAC (Table 2), read-out: HDAC inhibitory activity Purified liver (IC50)): 0.31 µM
CC=CC=CC(=O)NO [hexa-2,4-dienic acid hydroxamide, reference compound] |  |  |  |  | 0.8 ± 0.7 | 47 ± 17 |  | 
CC(/C=C/C(=O)NO)=C\[C@@H](C)C(=O)c1ccc(N(C)C)cc1 [trichostatin, Trichostatin A, reference compound] |  |  | greater than 90% |  |  |  |  | IC50 (CEM cells; Homo sapiens, CCRF-CEM, 72 h, read-out: % viability (IC50) μM): 0.082 ± 0.011 µM
sodium phenyl-butyrohydroxamic acid [NaPBHA, reference compound] |  |  |  |  | 6.2 ± 2 | 158 ± 99 |  | IC50 (CEM cells; CEM cells, 3-day exposure, read-out: IC50 values for percentage viability): 138 ± 28 µM

The next lines start with results.

IC50 (rat liver HDAC; [3]) [µM] | IC50 [1, 4] [µM] | decrease in HDAC inhibitory activity between 1 and 24 hours incubation [2] | IC50 [1, 5] [µM] | IC50 (rat liver HDAC; [7]) [µM] | IC50 [1, 8] [µM] | Compound | IC50 (CEM cells; [6]) [µM] | further results
0.8 ± 0.3 | 3.3 ± 1.3 |  |  |  |  | O=C(/C=C/C=C/CS(=O)(=O)c1ccccc1)NO [CM4, 6-benzenesulfonyl-hexa-2,4-dienoic acid hydroxamide] |  | 
 |  | no decrease in activity | 1.28 |  |  | O=C(CCCCC[S+]([O-])c1ccc(Cl)cc1)NO (stereo not drawn) [UCL 2007, 6-(4-Chloro-benzenesulfinyl)-hexanoic acid hydroxyamide] | 2.56 | 
